Measured values as given in patent US11447512B2 (Shenzhen TargetRx, Inc., priority 2017, dated 2022).
Where a name gives a salt, the structure may show the parent alone. Read-outs that look alike come from different tables or passages of the source.

Experiments:
[1] = test system: HIV-1; assay: microbe, parasite or virus in culture; details: Human immunodeficiency virus 1, MT4, 120 h, read-out: HIV activity and cytotoxicity data EC50 (nM)
Experimental: The data was analyzed by GraphPad Prism software, and the curve was fitted and EC50 and CC50 values were calculated. EC50 refers to the effective concentration that inhibits 50% virus production, 50% virus infectivity, or 50% virus-induced cellular effects. CC50 refers to the inhibitory concentration that reduces the cell growth or viability of uninfected cells by 50%.
Compound treatment: the test compounds and the reference compounds were 2-fold diluted with DMSO and added to the cell culture plate. The test compounds and the reference compounds were tested at 8 concentrations in duplicate.
Viral infection and cell treatment: HIV-1 and MT-4 cells were co-incubated at 37° C., in an incubator with 5% CO2 for 1 h. The infected cells were then seeded in a cell culture plate at a certain density. The final concentration of DMSO in the cell culture medium was 0.5%. The cells were incubated at 37° C., in an incubator with 5% CO2 for 5 days. The cells tested in the cytotoxicity assay were uninfected MT-4 cells, and other test conditions were with the same as that of the antiviral activity assay.
The activity assay of the cell: the cell viability was tested by using cell viability assay Reagent CellTiter-glo (Promega). The raw data was used for calculating the anti-HIV-1 activity and cytotoxicity of the Compounds.

[2] = Cytotoxicity in uninfected MT-4 cells (CellTiter-glo); type: cell-based; details: human, read-out: HIV activity and cytotoxicity data CC50; for CC50: 5 days
Experimental: The data was analyzed by GraphPad Prism software, and the curve was fitted and EC50 and CC50 values were calculated. […] CC50 refers to the inhibitory concentration that reduces the cell growth or viability of uninfected cells by 50%.

[3] = test system: HBV; assay: In vitro anti-HBV activity in HepG2.2.15 cells (HBV DNA by quantitative PCR); type: cell-based; details: Hepatitis B virus
Experimental: Experimental method: anti-HBV activity of compounds was detected by Bright-Glo (Promega) luciferase.
Anti-cell viability assay: in vitro anti-hepatitis b virus activity of Example compounds was tested in HepG2.2.15 cells with TDF as a positive control compound. Cells were seeded into a 96-well plate on the first day; the compounds were added to treat the cells on the next day; and a new culture medium containing the compounds was replaced on the fifth day. On the eighth day, the supernatant was collected for DNA extraction. The content of HBV DNA was detected by quantitative PCR. Both test compound and TDF were subjected to a 3-fold serial dilution to get 8 concentration points in duplicate. The final concentration of DMSO in the culture medium was 0.5%. The formula for calculating the percentage of inhibition is as follows: Inhibition rate=(1−copy number of HBV in sample/copy number of HBV in DMSO control group)×100%
EC50 is analyzed by Graphpad Prism software (four parameter logistic equations), wherein I represents EC50≤50 nM, II represents 50 nM≤EC50≤200 nM, III represents 200 nM<EC50≤500 nM, IV represents EC50>500 nM (as shown in Table 1 below).

[4] = Cytotoxicity experiment of the anti-HBV test (Cell-titer Blue); type: cell-based; details: human, six days after treatment
[5] = Human liver microsome metabolic stability; type: in vitro ADME; details: pH 7.4, 1 μM compound, 0.5 mg/mL protein, NADPH; for microsomal CLint / microsomal CLint at 1 μM: read-out: Human liver microsome experiment CLint; for half-life / half-life at 1 μM: read-out: Human liver microsome experiment t1/2
Experimental: (§1) Microsomal experiments: human liver microsomes: 0.5 mg/mL, Xenotech; rat liver microsomes: 0.5 mg/mL, Xenotech; coenzyme (NADPH/NADH): 1 mM, Sigma Life Science; magnesium chloride: 5 mM, 100 mM phosphate buffer (pH 7.4).
(§2) Preparation of stock solution: powder of Example compounds were precisely weighed and dissolved in DMSO to 5 mM.
(§3) Preparation of phosphate buffer (100 mm, pH7.4): 0.5M pre-formulated potassium dihydrogen phosphate (150 ml) and 0.5M potassium hydrogen phosphate (700 ml) were mixed well. The pH of the mixture was then adjusted to 7.4 with 0.5M potassium hydrogen phosphate solution. The resulting solution was 5-fold diluted with ultrapure water before use, and magnesium chloride was added to the solution, affording a phosphate buffer (100 mm), containing potassium phosphate (100 mM), magnesium chloride (3.3 mM), pH 7.4.
(§4) A NADPH regeneration system solution (containing 6.5 mM NADP, 16.5 mM G-6-P, 3 U/mL G-6-P D, 3.3 mM magnesium chloride) was formulated, which was placed on wet ice before use.
(§5) Preparation of stop solution: 50 ng/mL of propranolol hydrochloride and 200 ng/mL of tolbutamide (internal standard) in acetonitrile. 25057.5 μL of phosphate buffer (pH 7.4) was placed to a 50 mL centrifuge tube, and 812.5 μL human liver microsomes were added to the tube, which were mixed well to give a protein concentration of 0.625 mg/mL liver microsomes diluent. 25057.5 μL of phosphate buffer (pH 7.4) was placed to a 50 ml centrifuge tube, and 812.5 μL SD rat liver microsomes were added to the tube, which were mixed well to give a protein concentration of 0.625 mg/mL liver microsomes diluent.
(§6) Incubation of the sample: the stock solution of the corresponding compounds was diluted to 0.25 mM with 70% acetonitrile in water as a working solution for later use. 398 μL of human liver microsomes dilution or rat liver microsomes dilution was added into 96-well incubation plate (N=2), and 2 μL of 0.25 mM working solution was added to the plate, which were mixed well.
(§7) Metabolic stability assay: 300 μL of pre-chilled stop solution was added to each well of a 96-well deep-well plate and the plate was placed on ice as a stop plate. The 96-well incubation plate and NADPH regeneration system were placed in a 37° C. water bath, shaked at 100 rpm, pre-incubated for 5min. 80 μL of incubation solution was taken from each well of the incubation plate and was added to the stop plate, which were mixed well. 20 μL of NADPH regeneration system solution was supplemented into the mixture to form the 0 min sample. Then 80 μL of NADPH regeneration system solution was added to each well of the incubation plate to initiate the reaction and start timing. The reaction concentration of the corresponding compound was 1 μM, and the protein concentration was 0.5 mg/mL. At 10, 30, and 90 min, 100 μL of the reaction solution was added to the stop plate and vortexed for 3 min to quench the reaction. The stop plate was centrifuged at 5000×g at 4° C. for 10 min. 100 μL of supernatant was taken into a 96-well plate containing 100 μL of distilled water, which were mixed well. LC-MS/MS was used for sample analysis.
(§8) Data analysis: The peak area of the corresponding compounds and internal standard was detected by LC-MS/MS system, and the peak area ratio of compounds to internal standard was calculated. The slope was measured by plotting the natural log of the percentage of the remaining amount of the compounds versus time, and t1/2 and CLint were calculated according to the following formula, where V/M is equal to 1/protein concentration.

[6] = Rat liver microsome metabolic stability; type: in vitro ADME; details: SD, pH 7.4, 1 μM compound, 0.5 mg/mL protein, NADPH; for microsomal CLint / microsomal CLint at 1 μM: read-out: Rat liver microsome experiment CLint; for half-life / half-life at 1 μM: read-out: Rat liver microsome experiment t1/2
Experimental: as §1, §2, §3, §4, §5, §6, §7, §8

[7] = relative to TDF; cited from earlier work
[8] = relative to TDF; cited from earlier work; remark: listed apart in the source
[9] = HepG2.2.15 cells, HBV DNA in supernatant on the eighth day, read-out: HBV activity and cytotoxicity data EC50

SMILES | EC50 [1] | CC50 [2] | EC50 [3, 9] | CC50 [4] | microsomal CLint ([5]; microsomes) | half-life ([5]; microsomes) | microsomal CLint ([6]; microsomes) | half-life ([6]; microsomes) | CC50 at 5 days [2] | CC50 at 6 days ([4]; HepG2.2.15 cells) | microsomal CLint at 1 μM ([5]; human liver microsomes) | half-life at 1 μM ([5]; human liver microsomes) | microsomal CLint at 1 μM ([6]; rat liver microsomes) | half-life at 1 μM ([6]; rat liver microsomes) | also measured
CCCCCCCCCCCCCCCCOCCCOP(O)(=S)CO[C@H](C)Cn1cnc2c(N)ncnc21 (stereo partly shown) [Compound T-1] | 5 to 20 nM | 3 to 10 µM | < 50 nM | 7 to 50 µM | 45.6 µL/min/mg | 3.04 min | 5.6 µL/min/mg | 249 min |  |  |  |  |  |  | 
CC(C)OC(=O)[C@H](C)NP(=S)(CO[C@H](C)Cn1cnc2c(N)ncnc21)Oc1ccccc1 (stereo partly drawn) [Compound T-3, 9-{(R)-2-[({[(S)-1-(isopropoxycarbonyl)ethyl]amino}phenoxythiophosphoryl)methoxy]lpropyl}adenine] | 5 to 20 nM |  |  |  |  |  |  |  | 3 to 10 µM |  |  |  |  |  | EC50 ([3]; HepG2.2.15, read-out: HBV activity and cytotoxicity data EC50 (nM)): 50 to 200 nM; CC50 at 6 days [4]: > 50 µM; microsomal CLint at 1 μM ([5]; microsomes): 285 µL/min/mg; half-life at 1 μM ([5]; microsomes): 4.9 min; microsomal CLint at 1 μM ([6]; microsomes): 82.5 µL/min/mg; half-life at 1 μM ([6]; microsomes): 16.8 min
CCCCCCCCCCCCCCCCOCCCOP(=S)(CO[C@H](C)Cn1cnc2c(N)ncnc21)OCOC(=O)OC(C)C (stereo partly drawn) [Compound T-4, (R)-9-{2-[(hexadecyloxypropyl)(isopropylcarbonatemethyl)thiophosphorylmethoxy]propyl}adenine] | > 500 nM | > 50 µM | > 500 nM | > 50 µM | 116 µL/min/mg | 11.9 min | 68.5 µL/min/mg | 20.2 min |  |  |  |  |  |  | 
CCCCCCCCCCCCCCCCOCCCOP(=O)(CO[C@H](C)Cn1cnc2c(N)ncnc21)OCOC(=O)SC(C)C (stereo partly drawn) [Compound T-5, (R)-9-{2-[(hexadecyloxypropyl)(isopropylsulfanylcarbonyloxymethyl)phosphorylmethoxy]propyl}adenine] | 5 to 20 nM |  | 50 to 200 nM |  |  |  |  |  | > 50 µM | > 50 µM | 42.7 µL/min/mg | 32.5 min | 56.6 µL/min/mg | 24.5 min | 
CCCCCCCCCCCCCCCCOCCCOP(=S)(CO[C@H](C)Cn1cnc2c(N)ncnc21)N[C@@H](C)C(=O)OC(C)C (stereo partly shown) [Compound T-6] | > 500 nM | 3 to 10 µM | 200 to 500 nM | 7 to 50 µM | 12.9 µL/min/mg | 107 min | 9.9 µL/min/mg | 140 min |  |  |  |  |  |  | 
CCCCCCCCCCCCCCCCOCCCOP(=O)(CO[C@H](C)Cn1cnc2c(N)ncnc21)N[C@@H](C)C(=O)SC(C)C (stereo partly shown) [Compound T-7] | < 5 nM |  | 50 to 200 nM |  |  |  |  |  | 3 to 10 µM | 7 to 50 µM | 84.4 µL/min/mg | 16.4 min | 50.8 µL/min/mg | 27.3 min | 
CC(=O)SCCOP(=O)(CO[C@H](C)Cn1cnc2c(N)ncnc21)OCOC(=O)OC(C)C (stereo partly drawn) [Compound T-8, (R)-9-{2-[(acetylsulfanylethyl)(isopropylcarbonatemethyl)phosphorylmethoxy]propyl}adenine] | 20 to 100 nM |  | 200 to 500 nM |  |  |  |  |  | 10 to 50 µM | > 50 µM | 84.1 µL/min/mg | 16.5 min | 92.7 µL/min/mg | 14.9 min | 
CC(C)OC(=O)[C@H](C)N[P@](=O)(CO[C@H](C)Cn1cnc2c(N)ncnc21)Oc1ccccc1 [TAF, Tenofovir Alafenamide Fumarate] |  |  |  |  |  |  |  |  |  |  |  |  |  |  | concentration of TFV in plasma metabolized by TAF, lower than that of TDF [7]: 90%; concentration of TFV in immune cells metabolized by TAF, higher than that of TDF [8]: 4 times
